Assay results taken from patent publication US20110209253A1, “Method for Improving Plant Health” (BASF SE, priority 2008, published 2011).
Like-named read-outs stand apart in the source and are kept apart here.

Test system: Wheat plants (Triticum aestivum cv. Monopol)
Test: Growth-promoting effect on wheat plants after foliar treatment (Example 3)
Assay type: in vivo
Conditions: after 18 days; for activity at 7.5 g/ha / activity at 15 g/ha: Triticum aestivum, 432 h
Procedure: Wheat plants (Triticum aestivum cv. Monopol) were grown in soil with ten plants per pot (13 cm diameter) under greenhouse conditions. Plants at the 2nd leaf stage were sprayed with aqueous solutions of formulated compounds: • Compound 2: 5-Methyl-2-trifluoromethyl-furan-3-carboxylic acid (1-methylcarbamoyl-2-phenyl-ethyl)-amide • Compound 3: 1-Methyl-3-trifluoromethyl-1H-pyrazole-4-carboxylic acid (1-methylcarbamoyl-2-phenyl-ethyl)-amide • Compound 4: Methyl-carbamic acid-2-methylcarbamoyl-2-[(1-methyl-3-trifluoromethyl-1H-pyrazole-4-carbonyl)-amino]-ethyl ester • Compound 5: Methyl-carbamic acid-2-methylcarbamoyl-2-[(1-methyl-3-trifluoromethyl-1H-pyrazole-4-carbonyl)-amino]-1-(tetrahydro-pyran-4-yl)-ethyl ester • Compound 6: Methyl-carbamic acid 1,1-dimethyl-2-methylcarbamoyl-2-[(1-methyl-3-trifluoromethyl-1H-pyrazole-4-carbonyl)-amino]-ethyl ester • Compound 7: 1-Methyl-3-trifluoromethyl-1H-pyrazole-4-carboxylic acid (2-hydroxy-3-methoxy-2-methoxymethyl-1-methylcarbamoyl-propyl)-amide • Compound 8: Methyl-carbamic acid 1,1-bis-methoxymethyl-2-methylcarbamoyl-2-[(1-methyl-3-trifluoromethyl-1H-pyrazole-4-carbonyl)-amino]-ethyl ester • Compound 9: Methyl-carbamic acid (E)-1-methyl-1-{methylcarbamoyl-[(1-methyl-3-trifluoromethyl-1H-pyrazole-4-carbonyl)-amino]-methyl}-but-2-enyl ester The compounds were applied at two different dose rates (15 and 7.5 g ai/ha) and the spray volume was 750 I/ha. Six replicate pots with ten plants each were used per treatment. After 18 days plants were harvested and growth parameters were determined. The recorded parameters were fresh weight (FW) and dry weight (DW). Mean values of results, standard deviation (SD) and percentage to control were calculated.

[1] = 7.5 g/ha foliar spray, read-out: Shoot DW % of control
[2] = 7.5 g/ha foliar spray, read-out: Shoot FW % of control
[3] = 15 g/ha foliar spray, read-out: Shoot DW % of control
[4] = 15 g/ha foliar spray, read-out: Shoot FW % of control

Structure (SMILES) | Shoot DW (7.5 g/ha foliar spray) [g] | Shoot FW (7.5 g/ha foliar spray) [g] | Shoot DW (15 g/ha foliar spray) [g] | Shoot FW (15 g/ha foliar spray) [g] | activity at 7.5 g/ha [1] [%] | activity at 7.5 g/ha [2] [%] | activity at 15 g/ha [3] [%] | activity at 15 g/ha [4] [%]
CNC(=O)OC(COC)(COC)C(NC(=O)c1cn(C)nc1C(F)(F)F)C(=O)NC (stereo not shown) [Compound 8, Methyl-carbamic acid 1,1-bis-methoxymethyl-2-methylcarbamoyl-2-[(1-methyl-3-trifluoromethyl-1H-pyrazole-4-carbonyl)-amino]-ethyl ester] | 3.9 | 39.6 | 3.7 | 39.4 | 138 | 129 | 131 | 121
C/C=C/C(C)(OC(=O)NC)C(NC(=O)c1cn(C)nc1C(F)(F)F)C(=O)NC (stereo not shown) [Compound 9, Methyl-carbamic acid (E)-1-methyl-1-{methylcarbamoyl-[(1-methyl-3-trifluoromethyl-1H-pyrazole-4-carbonyl)-amino]-methyl}-but-2-enyl ester] | 3.6 | 38.8 | 3.8 | 39.4 | 129 | 127 | 135 | 129
CNC(=O)OCC(NC(=O)c1cn(C)nc1C(F)(F)F)C(=O)NC (stereo not shown) [Compound 4, Methyl-carbamic acid-2-methylcarbamoyl-2-[(1-methyl-3-trifluoromethyl-1H-pyrazole-4-carbonyl)-amino]-ethyl ester] | 3.7 | 37.7 | 3.8 | 40.1 | 131 | 123 | 137 | 131
CNC(=O)OC(C)(C)C(NC(=O)c1cn(C)nc1C(F)(F)F)C(=O)NC (stereo not shown) [Compound 6, Methyl-carbamic acid 1,1-dimethyl-2-methylcarbamoyl-2-[(1-methyl-3-trifluoromethyl-1H-pyrazole-4-carbonyl)-amino]-ethyl ester] | 3.7 | 39.2 | 3.6 | 38.2 | 132 | 128 | 130 | 125
CNC(=O)C(NC(=O)c1cn(C)nc1C(F)(F)F)C(O)(COC)COC (stereo not shown) [Compound 7, 1-Methyl-3-trifluoromethyl-1H-pyrazole-4-carboxylic acid (2-hydroxy-3-methoxy-2-methoxymethyl-1-methylcarbamoyl-propyl)-amide] | 3.7 | 38.7 | 3.7 | 40.2 | 131 | 126 | 133 | 131
CNC(=O)OC(C1CCOCC1)C(NC(=O)c1cn(C)nc1C(F)(F)F)C(=O)NC (stereo not shown) [Compound 5, Methyl-carbamic acid 2-methylcarbamoyl-2-[(1-methyl-3-trifluoromethyl-1H-pyrazole-4-carbonyl)-amino]-1-(tetrahydro-pyran-4-yl)-ethyl ester] | 3.8 | 41.2 | 3.7 | 39.6 | 135 | 135 | 133 | 129
CNC(=O)C(Cc1ccccc1)NC(=O)c1cn(C)nc1C(F)(F)F (stereo not shown) [Compound 3, 1-Methyl-3-trifluoromethyl-1H-pyrazole-4-carboxylic acid (1-methylcarbamoyl-2-phenyl-ethyl)-amide] | 3.8 | 39.4 | 3.8 | 39.1 | 135 | 129 | 135 | 128
CNC(=O)C(Cc1ccccc1)NC(=O)c1cc(C)oc1C(F)(F)F (stereo not shown) [Compound 2, 5-Methyl-2-trifluoromethyl-furan-3-carboxylic acid (1-methylcarbamoyl-2-phenyl-ethyl)-amide] | 3.8 | 40.9 | 3.7 | 38.7 | 135 | 134 | 131 | 126
